# In patent US8715678B2, “Method for inhibiting the formation of SET1 family core complexes” (Syracuse University, priority 2008, dated 2014):
# Ends that are not written are not given here.
# Experiments:
# [1] = test system: H3K4 trimethylation / H3K27 trimethylation of H3; assay: Western blot of H3K4 trimethylation to H3K27 trimethylation ratio in HEK293T cells; format: cell-based; conditions: 20 micrograms per milliliter, 24 hours, normalized to total histone H3
# Procedure: HEK293T cells were treated with 20 micrograms per milliliter of the inhibitor peptide (SEQ ID NO. 34) for 24 hours and immune-blotted using antibodies specific for H3K4 trimethylation, H3K27 trimethylation, and histone H3 (to provide for normalization). Western blots were quantified based on band intensity using image analysis software and normalized as a function of total histone H3. Tubulin was used as a loading control and its level remained constant between the two samples.
# [2] = test system: MLL1-dependent Hox genes (e.g. Hoxc8 and Hoxa9); assay: Expression of MLL1-dependent Hox genes in HEK293T cells; format: cell-based; conditions: 20 micrograms per milliliter, 24 hours
# Source text: In another embodiment, an inhibitor peptide with a cell penetration sequence is used to treat MLL1-associated leukemia. […] The addition of the inhibitor peptides disclosed herein can help control the degree of upregulation and thereby serve as a treatment for leukemia. Experiments have shown the degree of expression of MLL1-dependent Hox genes (e.g. Hoxc8 and Hoxa9) are decreased in the presence of inhibitor peptide SEQ ID NO. 34 in HEK293T cells treated with 20 micrograms per milliliter of the inhibitor peptide for 24 hours.
# [3] = test system: mouse embryonic carcinoma cell nuclei; assay: Fluorescence localization and nuclear phenotype in mouse embryonic carcinoma cells; format: cell-based
# WDR5 = target: T1, WDR5 (Homo sapiens, UniProt P61964); assay: Binding of N-acetylated three residue peptide (method not given); conditions: acetylated on the N-terminus
# T1 construct: pMCGS7 plasmids encoding full-length WDR5 as N-terminal His6 fusions were obtained; His6 (N); made in house; host or cells: Escherichia coli (Rosetta II, Novagen)
Substance,ratio of H3K4 trimethylation to H3K27 trimethylation [1],degree of expression of MLL1-dependent Hox genes (Hoxc8 and Hoxa9) [2],localization of fluorescent signature ([3]; mouse embryonic carcinoma cells),effect on metaphase cells and nuclear shape ([3]; within 48 hours of treatment),binding of three residue peptide (WDR5)
Ac-VNPTGCARSEPK-Ahx-K(FTIC)-GRKKRRQRRRAP-CONH2 [SEQ ID NO. 34],lowering of the ratio of H3K4 to H3K27,decreased,rapidly localized to eurchromatic regions of mouse embryonic carcinoma cell nuclei,metaphase cells are absent and many cell nuclei have adopted altered shapes,–
acART (Ac-Ala-Arg-Thr) [three residue peptide (ARX2)],–,–,–,–,capable of binding
